“And” between values parts separate entries of the source, which are not always exact repeats. Identical values can stand only once.
Test: mn = molality of the nth substance listed, in mol/kg
Conditions: 100 kPa, Liquid, Vibrating tube method

N[C@@H](Cc1ccc(O)cc1)C(=O)O [3-(p-hydroxyphenyl)-L-alanine] + O
mass density
Conditions	273.65 K	274.15 K	274.65 K	275.15 K	275.65 K	276.15 K	276.65 K	277.15 K	277.65 K	278.15 K
m1 = 0.0005	999.883 kg/m3	999.909 kg/m3	999.932 kg/m3	999.95 kg/m3	999.963 kg/m3	999.972 kg/m3	999.98 kg/m3	999.979 kg/m3	999.978 kg/m3	999.972 kg/m3
m1 = 0.001	999.917 kg/m3	999.942 kg/m3	999.965 kg/m3	999.984 kg/m3	999.997 kg/m3	1000 kg/m3	1000.01 kg/m3	1000.01 kg/m3	1000.01 kg/m3	1000 kg/m3
m1 = 0.0011	999.943 kg/m3	999.97 kg/m3	999.993 kg/m3	1000.01 kg/m3	1000.02 kg/m3	1000.03 kg/m3	1000.04 kg/m3	1000.04 kg/m3	1000.04 kg/m3	1000.03 kg/m3
m1 = 0.0022	1000.01 kg/m3	1000.04 kg/m3	1000.06 kg/m3	1000.08 kg/m3	1000.09 kg/m3	1000.1 kg/m3	1000.11 kg/m3	1000.11 kg/m3	1000.11 kg/m3	1000.1 kg/m3
m1 = 0.0026	1000.03 kg/m3	1000.06 kg/m3	1000.08 kg/m3	1000.1 kg/m3	1000.11 kg/m3	1000.12 kg/m3	1000.13 kg/m3	1000.13 kg/m3	1000.13 kg/m3	1000.12 kg/m3
m1 = 0.0035	1000.1 kg/m3	1000.13 kg/m3	1000.15 kg/m3	1000.17 kg/m3	1000.18 kg/m3	1000.19 kg/m3	1000.19 kg/m3	1000.2 kg/m3	1000.19 kg/m3	1000.19 kg/m3
m1 = 0.0036	1000.1 kg/m3	1000.13 kg/m3	1000.15 kg/m3	1000.17 kg/m3	1000.18 kg/m3	1000.19 kg/m3	1000.2 kg/m3	1000.2 kg/m3	1000.19 kg/m3	1000.19 kg/m3
m1 = 0.0038	1000.11 kg/m3	1000.13 kg/m3	1000.15 kg/m3	1000.17 kg/m3	1000.18 kg/m3	1000.19 kg/m3	1000.2 kg/m3	1000.2 kg/m3	1000.2 kg/m3	1000.19 kg/m3
m1 = 0.0045	1000.16 kg/m3 and 1000.17 kg/m3	1000.18 kg/m3 and 1000.2 kg/m3	1000.21 kg/m3 and 1000.22 kg/m3	1000.23 kg/m3 and 1000.24 kg/m3	1000.24 kg/m3 and 1000.25 kg/m3	1000.25 kg/m3	1000.25 kg/m3 and 1000.26 kg/m3	1000.25 kg/m3 and 1000.26 kg/m3	1000.25 kg/m3 and 1000.26 kg/m3	1000.24 kg/m3 and 1000.25 kg/m3
m1 = 0.0047	1000.16 kg/m3	1000.19 kg/m3	1000.21 kg/m3	1000.23 kg/m3	1000.24 kg/m3	1000.25 kg/m3	1000.26 kg/m3	1000.26 kg/m3	1000.25 kg/m3	1000.25 kg/m3
m1 = 0.0053	1000.21 kg/m3 and 1000.22 kg/m3	1000.23 kg/m3 and 1000.25 kg/m3	1000.26 kg/m3 and 1000.27 kg/m3	1000.27 kg/m3 and 1000.28 kg/m3	1000.29 kg/m3 and 1000.3 kg/m3	1000.29 kg/m3 and 1000.31 kg/m3	1000.3 kg/m3 and 1000.31 kg/m3	1000.3 kg/m3 and 1000.31 kg/m3	1000.3 kg/m3 and 1000.31 kg/m3	1000.29 kg/m3 and 1000.3 kg/m3
m1 = 0.0055	1000.21 kg/m3	1000.23 kg/m3	1000.25 kg/m3	1000.27 kg/m3	1000.29 kg/m3	1000.29 kg/m3	1000.3 kg/m3	1000.3 kg/m3	1000.3 kg/m3	1000.29 kg/m3

Reference: the NIST ThermoML archive (doi:10.1021/acs.jced.9b00752)
